Reference: patent US20230265151A1, “GIP/GLP1 CO-AGONIST COMPOUNDS” (priority 2020, published 2023)
Like-named read-outs stand apart in the source and are kept apart here.

How the values were obtained:
[1] = molecular target: T1, human GLP-1 receptor (hGLP-1R) (Homo sapiens, UniProt P43220); assay: [125I]-GLP-1 binding, SPA with membranes of HEK293 cells expressing hGLP-1R; conditions: human GLP-1R; geometric mean (SEM, n); read-out: Binding Affinity Ki, nM (SEM, n) hGLP-1R
T1 construct: expressed in transfected cells; crude membranes
Method: Two methods are used for the preparation of crude cell membranes.
Method 1: Frozen cell pellets are lysed on ice in hypotonic buffer containing 50 mM Tris HCl, pH 7.5, and Roche Complete™ Protease Inhibitors with EDTA. […] The homogenate is centrifuged at 4° C. at 1100 × g for 10 minutes. The supernatant is collected and stored on ice while the pellets are resuspended in homogenization buffer and rehomogenized as described above. The homogenate is centrifuged at 1100 × g for 10 minutes. The second supernatant is combined with the first supernatant and centrifuged at 35000 × g for 1 hour at 4° C. The resulting membrane pellet is resuspended in homogenization buffer containing protease inhibitors at approximately 1 to 3 mg/mL, quick frozen in liquid nitrogen and stored as aliquots in a -80° C. freezer until use.
The homogenate is centrifuged at 4° C. at 1800 × g for 15 minutes. The supernatant is collected and stored on ice while the pellets are resuspended in homogenization buffer (without DNAse I) and rehomogenized as described above. The homogenate is centrifuged at 1800 × g for 15 minutes. The second supernatant is combined with the first supernatant and centrifuged an additional time at 1800 × g for 15 minutes. The overall supernatant is then centrifuged at 25000 × g for 30 minutes at 4° C. The resulting membrane pellet is resuspended in homogenization buffer (without DNAse I) containing protease inhibitors at approximately 1 to 3 mg/mL and stored as aliquots in a -80° C. freezer until use.
The human GLP-1 receptor binding assay is performed using an SPA format with WGA beads. The binding buffer contains 25 mM HEPES, pH 7.4, 2.5 mM CaCl2, 1 mM MgCl2, 0.1% (w/v) bacitracin, 0.003% (w/v) TWEEN®-20, and Roche Complete™ Protease Inhibitors without EDTA.
Raw CPM data for concentration curves of peptides, Gcg, GLP-1, or GIP are converted to percent inhibition by subtracting nonspecific binding (binding in the presence of excess unlabeled Gcg, GLP-1, or GIP, respectively) from the individual CPM values and dividing by the total binding signal, also corrected by subtracting nonspecific binding. Data are analyzed using four-parameter (curve maximum, curve minimum, IC50, Hill slope) nonlinear regression routines (Genedata Screener, version 12.0.4, Genedata AG, Basal, Switzerland). […] Values for Ki are reported as the geometric mean, with error expressed as the standard error of the mean (SEM) and n is equal to the number of independent replicates (determined in assays performed on different days). Geometric Means are calculated as follows: […]
The Ki Ratio (Ki for native control peptide/Ki for test compound) at each receptor and each species is calculated. The Ki Ratio is a rapid indication of the apparent affinity of a peptide compared to the native control peptide.
n=⅟x means that only one value out of the total number of replicates (x) is used to express the mean. SEM is only calculated when n=2 or greater non-qualified results exist. Means are expressed as GeoMetric means with the standard error of the mean (SEM) and the number of replicates (n) indicated in parenthesis.

[2] = molecular target: T2, hGIPR (Homo sapiens, UniProt P48546); assay: Functional cAMP formation (HTRF) in HEK-293 clonal cells expressing hGIPR, 0.1% bovine casein, without or with 1.0% human serum albumin; format: cell-based; conditions: for EC50: geometric mean, read-out: hGIPR EC50, nM (SEM, n); for Emax: read-out: hGIPR Emax, % ± SEM
T2 construct: expressed in transfected cells
T2 sequence (P48546 22-466): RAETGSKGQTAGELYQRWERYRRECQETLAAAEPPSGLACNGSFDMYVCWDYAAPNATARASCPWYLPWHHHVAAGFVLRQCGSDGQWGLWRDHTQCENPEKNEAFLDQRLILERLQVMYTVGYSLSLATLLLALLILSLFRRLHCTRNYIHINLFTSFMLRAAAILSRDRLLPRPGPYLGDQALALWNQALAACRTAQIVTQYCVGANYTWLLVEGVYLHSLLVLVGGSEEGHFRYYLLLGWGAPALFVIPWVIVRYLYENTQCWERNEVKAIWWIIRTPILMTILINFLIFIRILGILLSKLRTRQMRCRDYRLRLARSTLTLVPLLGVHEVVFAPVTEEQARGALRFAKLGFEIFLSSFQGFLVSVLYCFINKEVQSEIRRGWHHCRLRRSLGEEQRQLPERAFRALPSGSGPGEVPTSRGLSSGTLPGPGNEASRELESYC
Outline: (§1)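 Readings of the HTRF 665/620 nm ratio, which falls as cAMP rises, were converted to nM cAMP using a standard curve after 30 min peptide exposure at 37° C.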

[3] = molecular target: T3, hGCGR (Homo sapiens, UniProt P47871); assay: Functional cAMP formation (HTRF) in HEK-293 clonal cells expressing hGCGR, 0.1% bovine casein, without or with 1.0% human serum albumin; format: cell-based; conditions: geometric mean, read-out: hGCGR EC50, nM (SEM, n)
T3 construct: expressed in transfected cells
Outline: as §1

[4] = molecular target: hGLP-1R (Homo sapiens, UniProt P43220); assay: Functional cAMP formation (HTRF) in HEK-293 clonal cells expressing hGLP-1R, 0.1% bovine casein, without or with 1.0% human serum albumin; format: cell-based; design: expressed in transfected cells; conditions: 37° C.; for EC50: 0.1% bovine casein and 1.0% human serum albumin, geometric mean, read-out: hGLP-1R EC50, nM (SEM, n); for Emax: HEK293, percent of maximal response to GLP-1(7-36)NH2, 0.1% bovine casein, arithmetic mean, read-out: hGLP-1R Emax, % ± SEM
Outline: as §1

[5] = 0.1% bovine casein and 1.0% human serum albumin, 37° C.
[6] = HEK293, 0.1% bovine casein and 1.0% human serum albumin, 37° C., percent of maximal response to GIP(1-42)NH2
[7] = cAMP, incubated at 37° C., 0.1% bovine casein (no human serum albumin)
[8] = HEK293, percent of maximal response to GIP(1-42)NH2, 37° C., 0.1% bovine casein, arithmetic mean

Chain of hGLP-1R (P43220 24-463): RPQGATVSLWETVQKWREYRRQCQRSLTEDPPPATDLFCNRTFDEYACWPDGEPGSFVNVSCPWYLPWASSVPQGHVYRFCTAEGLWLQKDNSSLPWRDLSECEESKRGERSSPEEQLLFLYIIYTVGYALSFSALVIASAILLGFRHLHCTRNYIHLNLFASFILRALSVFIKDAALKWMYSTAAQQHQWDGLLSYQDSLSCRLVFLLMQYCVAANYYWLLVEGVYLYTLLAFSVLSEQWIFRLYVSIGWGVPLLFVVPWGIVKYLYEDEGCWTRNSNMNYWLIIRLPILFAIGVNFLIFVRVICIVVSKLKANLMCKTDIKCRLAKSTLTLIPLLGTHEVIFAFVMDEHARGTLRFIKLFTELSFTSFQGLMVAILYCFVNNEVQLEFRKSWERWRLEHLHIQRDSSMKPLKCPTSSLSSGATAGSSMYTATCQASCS
T1 sequence (P43220 24-463): as above
T3 sequence (P47871 26-477): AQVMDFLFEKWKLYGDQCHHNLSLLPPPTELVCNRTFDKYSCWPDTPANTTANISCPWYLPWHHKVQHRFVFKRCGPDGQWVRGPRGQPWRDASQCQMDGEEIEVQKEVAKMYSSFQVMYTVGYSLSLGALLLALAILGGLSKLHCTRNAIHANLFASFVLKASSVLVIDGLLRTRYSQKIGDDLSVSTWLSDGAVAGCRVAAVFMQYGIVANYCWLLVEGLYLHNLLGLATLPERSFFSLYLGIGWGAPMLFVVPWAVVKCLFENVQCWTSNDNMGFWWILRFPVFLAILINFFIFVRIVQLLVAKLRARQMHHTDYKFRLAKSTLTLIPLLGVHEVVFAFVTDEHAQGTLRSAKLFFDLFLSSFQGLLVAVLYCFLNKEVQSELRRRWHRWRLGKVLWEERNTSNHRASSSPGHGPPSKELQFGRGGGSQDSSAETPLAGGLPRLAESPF

Row | Structure (SMILES) | Ki [1] [nM] | EC50 [2, 5] [nM] | Emax [2, 6] [%] | EC50 [3, 5] [nM] | EC50 [3, 7] [nM] | EC50 [4] [nM] | Emax [4] [%] | Emax [2, 8] [%] | EC50 [2, 7] [nM]
1 | CCCCCCCCCCCCCCCC(=O)N[C@@H](CCC(=O)NCCOCCOCC(=O)NCCOCCOCC(=O)NCCCC[C@H](NC(=O)[C@H](CCCN)NC(=O)[C@H](CC(=O)O)NC(=O)[C@H](CC(C)C)NC(=O)[C@](C)(CC(C)C)NC(=O)[C@@H](NC(=O)[C@H](CO)NC(=O)[C@H](CCCCNC(=O)COCCOCCNC(=O)COCCOCCNC(=O)CC[C@H](NC(=O)CCCCCCCCCCCCCCC)C(=O)O)NC(=O)[C@H](CC(=O)O)NC(=O)[C@H](CO)NC(=O)[C@@H](NC(=O)[C@](C)(Cc1ccccc1F)NC(=O)[C@@H](NC(=O)CNC(=O)[C@H](CCC(=O)O)NC(=O)C(C)(C)NC(=O)[C@@H](N)Cc1ccc(O)cc1)[C@@H](C)O)[C@@H](C)O)[C@@H](C)CC)C(=O)N[C@@H](C)C(=O)N[C@@H](CCC(N)=O)C(=O)NC(C)(C)C(=O)N[C@@H](CCC(=O)O)C(=O)N[C@@H](Cc1ccccc1)C(=O)N[C@H](C(=O)N[C@H](CCC(=O)O)C(=O)N[C@@](C)(Cc1ccc(O)cc1)C(=O)N[C@@H](CC(C)C)C(=O)N[C@H](C(=O)N[C@@H](CCC(=O)O)C(=O)NCC(=O)NCC(=O)N1CCC[C@H]1C(=O)N[C@@H](CO)C(=O)N[C@@H](CO)C(=O)NCC(=O)N[C@@H](C)C(=O)N1CCC[C@H]1C(=O)N1CCC[C@H]1C(=O)N1CCC[C@H]1C(=O)N[C@@H](CO)C(N)=O)[C@@H](C)CC)[C@@H](C)CC)C(=O)O [Example 29] | 0.412 | 0.472 | 96.9 ± 5.32 | > 9950 | > 9950 | 0.876 | 100 ± 6.65 |  | 
2 | CC[C@H](C)[C@H](NC(=O)[C@H](CC(C)C)NC(=O)[C@](C)(Cc1ccc(O)cc1)NC(=O)[C@@H](CCC(=O)O)NC(=O)[C@@H](NC(=O)[C@H](Cc1ccccc1)NC(=O)[C@H](CCC(=O)O)NC(=O)C(C)(C)NC(=O)[C@H](CCC(N)=O)NC(=O)[C@H](C)NC(=O)[C@H](CCCCNC(=O)COCCOCCNC(=O)COCCOCCNC(=O)[C@@H](N)CCCCNC(=O)CCCCCCCCCCCCC(=O)O)NC(=O)[C@H](CCCN)NC(=O)[C@H](CC(=O)O)NC(=O)[C@H](CC(C)C)NC(=O)[C@](C)(CC(C)C)NC(=O)[C@@H](NC(=O)[C@H](CO)NC(=O)[C@H](Cc1ccncc1)NC(=O)[C@H](CC(=O)O)NC(=O)[C@H](CO)NC(=O)[C@@H](NC(=O)[C@](C)(Cc1ccccc1F)NC(=O)[C@@H](NC(=O)CNC(=O)[C@H](CCC(=O)O)NC(=O)C(C)(C)NC(=O)[C@@H](N)Cc1ccc(O)cc1)[C@@H](C)O)[C@@H](C)O)[C@@H](C)CC)[C@@H](C)CC)C(=O)N[C@@H](CCC(=O)O)C(=O)NCC(=O)NCC(=O)N[C@@H](CCCCNC(=O)COCCOCCNC(=O)COCCOCCNC(=O)[C@@H](N)CCCCNC(=O)CCCCCCCCCCCCC(=O)O)C(=O)N[C@@H](CO)C(=O)N[C@@H](CO)C(=O)NCC(=O)N[C@@H](C)C(=O)N1CCC[C@H]1C(=O)N1CCC[C@H]1C(=O)N1CCC[C@H]1C(=O)N[C@@H](CO)C(N)=O [Example 33] | 1.34 | 0.0941 | 92 ± 1.02 | > 9950 | > 9950 | 4.35 |  | 97.6 ± 2.45 | 
3 | CC[C@H](C)[C@H](NC(=O)[C@H](CC(C)C)NC(=O)[C@](C)(Cc1ccc(O)cc1)NC(=O)[C@@H](CCC(=O)O)NC(=O)[C@@H](NC(=O)[C@H](Cc1ccccc1)NC(=O)[C@H](CCC(=O)O)NC(=O)C(C)(C)NC(=O)[C@H](CCC(N)=O)NC(=O)[C@H](C)NC(=O)[C@H](CCCCNC(=O)COCCOCCNC(=O)COCCOCCNC(=O)CC[C@H](NC(=O)CCCCCCCCCCCCC(=O)O)C(=O)O)NC(=O)[C@H](CCCN)NC(=O)[C@H](CC(=O)O)NC(=O)[C@H](CC(C)C)NC(=O)[C@](C)(CC(C)C)NC(=O)[C@@H](NC(=O)[C@](C)(CO)NC(=O)[C@H](Cc1ccc(O)cc1)NC(=O)[C@H](CC(=O)O)NC(=O)[C@H](CO)NC(=O)[C@@H](NC(=O)[C@](C)(Cc1ccccc1F)NC(=O)[C@@H](NC(=O)CNC(=O)[C@H](CCC(=O)O)NC(=O)C(C)(C)NC(=O)[C@@H](N)Cc1ccc(O)cc1)[C@@H](C)O)[C@@H](C)O)[C@@H](C)CC)[C@@H](C)CC)C(=O)N[C@@H](CCC(=O)O)C(=O)NCC(=O)NCC(=O)N[C@@H](CCCCNC(=O)COCCOCCNC(=O)COCCOCCNC(=O)CC[C@H](NC(=O)CCCCCCCCCCCCC(=O)O)C(=O)O)C(=O)N[C@@H](CO)C(=O)N[C@@H](CO)C(=O)NCC(=O)N[C@@H](C)C(=O)N1CCC[C@H]1C(=O)N1CCC[C@H]1C(=O)N1CCC[C@H]1C(=O)N[C@@H](CO)C(N)=O [Example 49] | 1.21 |  | 92.4 ± 4.07 | > 9950 | > 9950 |  | 97.3 ± 5.46 | 91 ± 1.7 | 0.0205
